Results from PMC10952572, “Improved PIEZO1 agonism through 4‐benzoic acid modification of Yoda1” (British Journal of Pharmacology, 2023).

Legend:
mouse portal vein = assay: Wire myography, relaxation of phenylephrine pre-constricted vein
Method: Mice were anaesthetised with isoflurane (5% induction and 1.5% maintenance) in 95% O2 according to Schedule 1 procedure approved by the UK Home Office. The portal vein was quickly dissected and placed in Krebs solution. The Krebs PV solution consisted of 118 mM NaCl, 4.7 mM KCl, 2.5 mM CaCl2, 1.2 mM KH2PO4, 1.2 mM MgSO4·7H2O, 25.2 mM NaHCO3 and 11.1 mM glucose. By means of a dissecting microscope, adhering perivascular tissue was carefully removed and the vein was cut into 1 mm segments.
Vein segments were mounted onto two thin stainless steel wires in an isometric myograph (Multi Wire Myograph System 620M from Danish Myograph Technology [DMT]), for which the force transducer was calibrated once per month according to the manufacturer's instructions. The recording chamber was filled with gassed Krebs solution (95% O2/5% CO2, pH 7.4). The segments were then stretched to a normalised internal diameter according to the manufacturer's instructions. The mounted rings were kept in a 5 ml chamber containing Krebs solution at 37°C and continuously bubbled with a gas mixture of 95% O2 and 5% CO2 (pH 7.4). After an equilibration period of 60 min, the contractile function of the vessel was tested by replacing the Krebs solution by 60 mM K^+ solution. Following washout, the vein was contracted once with 10 μM phenylephrine and then Yoda1, KC159 or KC289 was applied with the concentrations of 0.1 to 10 μM. The NOS inhibitor, L‐NAME, (100 μM), was pre‐incubated for 20 min before the PIEZO1 modulator.
Because the anticipated effect of test compounds was to cause vessel relaxation, phenylephrine was applied to induce tension and the maximum value of this tension was defined as 0% relaxation (no relaxation). The value of tension immediately prior to application of phenylephrine was defined as 100% relaxation. Data are normalised to these values because, otherwise, the intrinsic variability in the absolute amount of tension induced by phenylephrine obscured exploration of the relaxant effect of compounds.
OriginPro 2020 was used for the analysis of myography data. Myography traces show readings taken every 0.5 or 1 s and were smoothed with the Savitzky–Golay filter set to 70 points. To compare the agonistic activity of Yoda1 analogues, basal vessel tension prior to compound injection was subtracted. Maximal tension in the presence of PE alone was used to define 0% relaxation. The tension value prior to PE application was defined as 100% relaxation. Following the addition of test compounds, tension readings were taken at the last time point of the treatments and expressed as percentage relaxation.

hPIEZO1 [1] = molecular target: T1, hPIEZO1 (Homo sapiens, UniProt Q92508); assay: Intracellular Ca2+ measurement (Fura-2) in hPIEZO1-TREx cells; type: cell-based; settings: 10 μM compound, hPIEZO1-TREx cells, paired with 10 μM Yoda1
T1 construct: expressed in transfected cells
T1 sequence (Q92508 whole entry): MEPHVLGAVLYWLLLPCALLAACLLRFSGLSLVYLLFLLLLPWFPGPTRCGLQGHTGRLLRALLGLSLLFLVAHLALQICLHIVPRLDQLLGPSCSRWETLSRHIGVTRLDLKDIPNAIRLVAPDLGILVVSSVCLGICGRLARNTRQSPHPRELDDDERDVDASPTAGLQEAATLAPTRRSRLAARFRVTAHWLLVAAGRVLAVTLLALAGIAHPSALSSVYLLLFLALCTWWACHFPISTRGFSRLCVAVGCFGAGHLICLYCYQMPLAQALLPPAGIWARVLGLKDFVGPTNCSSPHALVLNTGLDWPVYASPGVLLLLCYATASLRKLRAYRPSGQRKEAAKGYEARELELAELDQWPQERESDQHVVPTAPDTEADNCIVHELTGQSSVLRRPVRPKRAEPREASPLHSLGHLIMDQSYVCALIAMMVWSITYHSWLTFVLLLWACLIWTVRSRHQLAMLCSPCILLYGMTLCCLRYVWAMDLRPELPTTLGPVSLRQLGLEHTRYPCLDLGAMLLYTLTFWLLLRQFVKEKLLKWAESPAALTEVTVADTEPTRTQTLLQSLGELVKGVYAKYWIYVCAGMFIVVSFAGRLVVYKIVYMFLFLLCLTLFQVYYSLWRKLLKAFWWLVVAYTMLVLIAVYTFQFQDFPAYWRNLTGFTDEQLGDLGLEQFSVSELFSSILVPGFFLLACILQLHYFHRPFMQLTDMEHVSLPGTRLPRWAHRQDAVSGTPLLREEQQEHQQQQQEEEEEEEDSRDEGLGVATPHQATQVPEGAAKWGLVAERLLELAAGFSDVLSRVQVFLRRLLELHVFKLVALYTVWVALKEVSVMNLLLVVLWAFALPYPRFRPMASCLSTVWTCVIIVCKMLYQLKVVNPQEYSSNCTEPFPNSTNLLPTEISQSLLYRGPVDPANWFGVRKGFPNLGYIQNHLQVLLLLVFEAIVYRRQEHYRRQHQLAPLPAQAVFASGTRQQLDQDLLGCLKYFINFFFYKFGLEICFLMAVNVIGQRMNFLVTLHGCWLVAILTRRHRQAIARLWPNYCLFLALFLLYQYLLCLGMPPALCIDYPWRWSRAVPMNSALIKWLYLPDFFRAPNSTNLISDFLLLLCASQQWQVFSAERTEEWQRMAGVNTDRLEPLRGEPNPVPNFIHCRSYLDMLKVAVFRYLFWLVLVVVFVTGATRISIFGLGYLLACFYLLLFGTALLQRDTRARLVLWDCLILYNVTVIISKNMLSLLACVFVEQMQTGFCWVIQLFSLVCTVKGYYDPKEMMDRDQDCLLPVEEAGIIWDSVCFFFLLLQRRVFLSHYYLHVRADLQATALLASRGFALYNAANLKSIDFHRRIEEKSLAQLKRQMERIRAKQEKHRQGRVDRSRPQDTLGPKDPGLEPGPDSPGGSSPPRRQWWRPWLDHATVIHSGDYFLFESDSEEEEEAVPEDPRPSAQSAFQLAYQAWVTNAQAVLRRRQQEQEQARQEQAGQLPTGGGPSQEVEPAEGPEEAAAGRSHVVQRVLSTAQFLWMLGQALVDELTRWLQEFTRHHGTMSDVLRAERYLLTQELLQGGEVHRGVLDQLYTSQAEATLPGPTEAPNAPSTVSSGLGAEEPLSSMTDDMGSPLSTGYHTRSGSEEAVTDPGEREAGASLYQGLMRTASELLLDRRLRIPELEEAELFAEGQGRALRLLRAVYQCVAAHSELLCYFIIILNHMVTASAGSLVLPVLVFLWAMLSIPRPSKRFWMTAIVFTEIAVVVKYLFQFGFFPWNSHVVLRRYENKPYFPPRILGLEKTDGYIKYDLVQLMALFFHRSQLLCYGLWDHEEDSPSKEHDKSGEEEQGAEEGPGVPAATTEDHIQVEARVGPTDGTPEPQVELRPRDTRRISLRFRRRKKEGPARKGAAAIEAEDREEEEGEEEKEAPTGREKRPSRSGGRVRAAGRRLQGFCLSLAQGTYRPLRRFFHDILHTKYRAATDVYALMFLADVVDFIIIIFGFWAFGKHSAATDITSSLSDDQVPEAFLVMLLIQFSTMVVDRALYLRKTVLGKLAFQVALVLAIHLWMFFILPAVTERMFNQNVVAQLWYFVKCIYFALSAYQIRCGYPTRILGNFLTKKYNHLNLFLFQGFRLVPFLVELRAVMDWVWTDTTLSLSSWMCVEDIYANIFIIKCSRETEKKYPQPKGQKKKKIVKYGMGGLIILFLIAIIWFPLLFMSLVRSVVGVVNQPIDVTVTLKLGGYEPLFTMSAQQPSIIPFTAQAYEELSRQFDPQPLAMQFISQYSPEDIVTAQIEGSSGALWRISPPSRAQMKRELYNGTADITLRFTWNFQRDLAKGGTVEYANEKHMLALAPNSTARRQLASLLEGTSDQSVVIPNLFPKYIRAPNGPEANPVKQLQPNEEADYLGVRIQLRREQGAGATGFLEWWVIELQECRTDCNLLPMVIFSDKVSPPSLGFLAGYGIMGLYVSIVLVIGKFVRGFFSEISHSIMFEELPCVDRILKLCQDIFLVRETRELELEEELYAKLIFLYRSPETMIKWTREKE
Excerpt: HEK T‐REx™ 293 cells (Thermo Fisher Cat #R71007, RRID:CVCL_D585) that overexpress hPIEZO1 upon induction with tetracycline were generated as previously described (Rode et al., [2017]). PIEZO1‐GFP was used as a PCR template to clone hPIEZO1 coding sequence into pcDNA™4/TO between HindIII and EcoRI restriction sites. PIEZO1 was amplified as two fragments using the following primers: (HindIII‐PIEZO1‐Fw: […] and BamHI‐Int.PIEZO1‐Rv: […]) and (BamHI‐Int. PIEZO1‐Fw: […] and EcoRI‐PIEZO1‐Rv: […]). The two fragments were fused using BamHI restriction site, resulting in the full‐length PIEZO1 coding sequence with the c4182a silent mutation. HEK T‐REx™ 293 cells (Invitrogen) were transfected with pcDNA4/TO‐PIEZO1 using Lipofectamine 2000 (Thermo Fisher Scientific). Subsequently, cells were treated with 10 μg·ml^−1 blasticidin and 200 μg·ml^−1 zeocin (InvivoGen) to select stably transfected cells. Single‐cell clones were isolated and analysed individually. Expression was induced by treating the cells for 24 h with 10 ng·ml^−1 tetracycline and analysed by quantitative RT‐PCR and Western blot. These cells are referred to as hPIEZO1‐TREx.
(§1) HEK 293‐TREx cells and their stably transfected derivatives or transiently transfected HEK 293 or HeLa cells were seeded at a density of 7.5 × 10^4 cells per well into poly‐D‐lysine‐coated 96‐well plates. The plates were either commercially pre‐coated with poly‐D‐lysine (Greiner Bio‐One #655946) or (Greiner Bio‐One #655090) were coated in‐house with 35 μl of a 10 μg·ml^−1 poly‐D‐lysine (Bio‐Techne, Cultrex # 3439‐100‐01) in sterile deionised water per well for at least 24 h and rinsed three times with 100 μl per well sterile D‐PBS before addition of cells. HUVECs were seeded into tissue culture‐treated 96‐well plates (Greiner Bio‐One #655090) at a density of either 2.5 × 10^4 cells 24 h before experimentation or 1.25 × 10^4 cells 48 h before experimentation. Cells were incubated with 2 μM Fura‐2‐AM (Molecular Probes™) in the presence of 0.01% (wt./vol.) pluronic F127 (Sigma‐Aldrich #P2443) in standard bath solution (SBS) for 1 h at 37°C. Cells were washed with SBS for 30 min at room temperature. Alternatively, if inhibitors were being tested, these were added at this time, immediately following a wash in SBS. (−)‐Englerin A (Akbulut et al., [2015]) was used in SBS containing 0.01% pluronic acid as a dispersing agent to minimise aggregation of compound. Unless otherwise stated, the final concentration of DMSO was 0.2% (vol./vol). Working 2000× stock solutions of test compounds were freshly made in DMSO and diluted 1000‐fold in SBS during the 30 min SBS wash/inhibitor pre‐incubation period to obtain 2× solutions for injection. When testing the highest concentration of Yoda1, KC159 and KC289 (30 μM), the final DMSO concentration was 0.6% (vol./vol.). Measurements were made at room temperature on a 96‐well fluorescence plate reader (FlexStation 3, Molecular Devices, Sunnyvale, CA, USA) controlled by SoftMax Pro software v7.0.3. Recipient wells containing 80 μl SBS/0.2% (vol./vol.) DMSO vehicle or inhibitor compound received 80 μl 2× compound at an injection rate of 1 μl·s^−1, and the pipette introduced liquids from a height setting of 70 μl. No trituration was performed. For recordings using Fura‐2, the change in intracellular Ca was indicated as the ratio of Fura‐2 emission (510 nm) intensities at 340 and 380 nm excitation. Photomultipliers were set to medium sensitivity. SBS contained 130 mM NaCl, 5 mM KCl, 8 mM D‐glucose, 10 mM HEPES, 1.2 mM MgCl2 and 1.5 mM CaCl2, and the pH was adjusted to 7.4 with NaOH. The solution was filtered through a 0.2 μm bottle‐top filter prior to use and handled aseptically thereafter.
For intracellular Ca^2+ (Ca^2+i) measurements, technical intra‐experiment replicates were used to improve confidence in the data. Analysis of individual experiments was performed to obtain mean ± SEM values. […]

mPIEZO1 [2] = molecular target: T2, mPIEZO1 (Mus musculus, UniProt E2JF22); assay: Intracellular Ca2+ measurement (Fura-2) in mPIEZO1-TREx cells; type: cell-based; settings: for Peak ΔCa2+i (ΔF340/380), median fold difference compared to Yoda1: 10 μM compound, mPIEZO1-TREx cells, paired with 10 μM Yoda1; for Ca2+ response (agonist effect): 10 μM, cells overexpressing mPIEZO1, compared with Yoda1
T2 construct: expressed in transfected cells
T2 sequence (E2JF22 whole entry): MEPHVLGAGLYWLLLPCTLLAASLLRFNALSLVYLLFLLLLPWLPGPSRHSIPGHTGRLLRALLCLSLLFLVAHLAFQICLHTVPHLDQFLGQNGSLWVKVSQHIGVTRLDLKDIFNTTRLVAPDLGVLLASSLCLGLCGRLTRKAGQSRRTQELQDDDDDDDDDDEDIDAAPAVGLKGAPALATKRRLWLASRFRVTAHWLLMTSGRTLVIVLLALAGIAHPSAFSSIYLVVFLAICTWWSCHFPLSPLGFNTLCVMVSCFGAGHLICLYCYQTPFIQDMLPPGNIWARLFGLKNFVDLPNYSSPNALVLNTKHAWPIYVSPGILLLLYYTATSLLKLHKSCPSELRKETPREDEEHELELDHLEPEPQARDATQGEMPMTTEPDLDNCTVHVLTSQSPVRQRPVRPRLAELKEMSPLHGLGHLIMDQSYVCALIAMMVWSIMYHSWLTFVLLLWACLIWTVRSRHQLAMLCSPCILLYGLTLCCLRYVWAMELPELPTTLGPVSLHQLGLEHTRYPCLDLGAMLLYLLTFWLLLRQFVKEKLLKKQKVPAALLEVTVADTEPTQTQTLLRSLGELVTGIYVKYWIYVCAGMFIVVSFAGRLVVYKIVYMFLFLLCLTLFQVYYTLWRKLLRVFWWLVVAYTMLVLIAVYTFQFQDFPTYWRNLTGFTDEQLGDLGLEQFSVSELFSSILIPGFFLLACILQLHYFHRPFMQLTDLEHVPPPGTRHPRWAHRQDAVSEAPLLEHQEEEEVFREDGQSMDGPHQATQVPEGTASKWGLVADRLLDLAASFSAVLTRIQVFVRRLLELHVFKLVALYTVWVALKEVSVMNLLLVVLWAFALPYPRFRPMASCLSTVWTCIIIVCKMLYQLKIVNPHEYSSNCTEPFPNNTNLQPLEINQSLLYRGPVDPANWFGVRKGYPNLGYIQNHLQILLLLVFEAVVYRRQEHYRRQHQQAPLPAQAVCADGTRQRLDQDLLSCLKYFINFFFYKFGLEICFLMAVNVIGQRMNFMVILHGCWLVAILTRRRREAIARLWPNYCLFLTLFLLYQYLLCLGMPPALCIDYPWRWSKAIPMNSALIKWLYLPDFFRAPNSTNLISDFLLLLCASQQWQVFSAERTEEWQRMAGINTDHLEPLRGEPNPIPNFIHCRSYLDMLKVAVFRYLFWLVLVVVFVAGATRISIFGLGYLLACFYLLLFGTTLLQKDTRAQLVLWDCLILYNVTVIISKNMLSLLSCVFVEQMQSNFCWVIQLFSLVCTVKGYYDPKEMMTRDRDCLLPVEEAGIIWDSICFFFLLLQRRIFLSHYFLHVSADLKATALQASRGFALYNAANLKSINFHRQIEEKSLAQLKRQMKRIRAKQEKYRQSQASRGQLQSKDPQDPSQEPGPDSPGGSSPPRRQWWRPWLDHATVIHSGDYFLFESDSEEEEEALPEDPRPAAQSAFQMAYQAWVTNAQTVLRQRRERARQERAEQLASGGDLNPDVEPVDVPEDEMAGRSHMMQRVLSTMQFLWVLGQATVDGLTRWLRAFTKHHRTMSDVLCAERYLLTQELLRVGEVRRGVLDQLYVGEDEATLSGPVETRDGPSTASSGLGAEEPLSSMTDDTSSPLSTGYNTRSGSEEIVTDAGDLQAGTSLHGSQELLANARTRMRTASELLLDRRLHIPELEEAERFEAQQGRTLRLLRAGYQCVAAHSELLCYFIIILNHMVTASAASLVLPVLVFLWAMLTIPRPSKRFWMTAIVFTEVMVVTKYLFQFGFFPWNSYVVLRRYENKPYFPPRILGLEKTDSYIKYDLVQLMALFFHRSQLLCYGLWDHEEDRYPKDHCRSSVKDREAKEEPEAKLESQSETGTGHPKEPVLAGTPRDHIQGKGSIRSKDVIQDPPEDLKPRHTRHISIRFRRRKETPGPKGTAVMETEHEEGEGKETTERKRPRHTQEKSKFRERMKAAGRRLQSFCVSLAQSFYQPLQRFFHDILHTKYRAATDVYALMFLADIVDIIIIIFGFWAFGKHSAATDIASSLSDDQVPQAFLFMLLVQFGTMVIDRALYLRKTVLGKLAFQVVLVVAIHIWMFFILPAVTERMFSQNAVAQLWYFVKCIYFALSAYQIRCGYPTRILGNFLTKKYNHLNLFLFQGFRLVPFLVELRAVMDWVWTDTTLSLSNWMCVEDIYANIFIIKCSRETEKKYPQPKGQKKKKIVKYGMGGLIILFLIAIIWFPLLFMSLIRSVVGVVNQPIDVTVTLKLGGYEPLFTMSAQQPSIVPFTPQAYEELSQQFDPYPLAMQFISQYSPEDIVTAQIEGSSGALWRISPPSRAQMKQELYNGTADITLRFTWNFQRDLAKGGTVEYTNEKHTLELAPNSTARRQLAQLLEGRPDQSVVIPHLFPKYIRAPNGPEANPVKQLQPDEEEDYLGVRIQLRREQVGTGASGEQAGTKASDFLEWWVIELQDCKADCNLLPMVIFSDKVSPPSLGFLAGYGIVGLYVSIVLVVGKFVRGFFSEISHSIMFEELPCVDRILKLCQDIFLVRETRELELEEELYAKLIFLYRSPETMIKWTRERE
Excerpt: HEK T‐REx™ cells that constitutively overexpress murine PIEZO1 were generated as previously described (Blythe et al., [2019]). pcDNA3 mouse PIEZO1 (mPIEZO1) IRES green fluorescent protein (GFP), a gift from Ardem Patapoutian (Coste et al., [2010]), was used as a template to clone the mPIEZO1 coding sequence into pcDNA4/TO. Overlapping mPIEZO1 (forward primer 5′‐[…]‐3′ and reverse primer 5′‐[…]‐3′) and pcDNA4/TO (forward primer 5′‐[…]‐3′ and reverse primer 5′‐[…]‐3′) PCR products were assembled using Gibson Assembly (New England Biolabs). […] HEK T‐REx™ 293 cells were transfected with pcDNA4/TO‐mPIEZO1 using Lipofectamine 2000 (Invitrogen) and treated with 200 μg·ml^−1 zeocin to select stably transfected cells. Individual clones were isolated and analysed for expression using Yoda1 and intracellular Ca^2+ measurements. These cells are referred to as mPIEZO1‐TREx.
as §1
For intracellular Ca^2+ (Ca^2+i) measurements, technical intra‐experiment replicates were used to improve confidence in the data. Analysis of individual experiments was performed to obtain mean ± SEM values. For collated analysis of independent experiments, where normal distributions were not evidenced by Shapiro–Wilk normality tests, non‐parametric distributions were assumed, and therefore, median values were used. […]

hPIEZO1 [3] = molecular target: T1, hPIEZO1; assay: Pre-treatment with analogue before Yoda1 stimulus, Ca2+ assay in hPIEZO1-TREx cells; type: cell-based; settings: for 2 μM Yoda1-evoked peak ΔCa2+i (ΔF340/380), median fold difference compared to DMSO pretreatment: hPIEZO1-TREx, 10 μM compound 30 min pretreatment before 2 μM Yoda1; for Inhibition of the action of Yoda1: hPIEZO1 channels, 10 μM for 30 min prior to Yoda1
Method: as §1
In view of the effect of Dooku1 described above, we tested if there are inhibitory actions of the new Yoda1 analogues by pre‐treating cells at 10 μM for 30 min prior to adding 2 μM Yoda1 (Figures 9 and S9, SI 1). All except KC157 and KC161 inhibited the action of Yoda1 on hPIEZO1 channels (Figures 9a and S9, SI 1). […] KC159 and KC289 were agonists, and so they may inhibit the effect of Yoda1 simply by pre‐activating the channels. KC158, KC161 and KC162 are also agonists of mPIEZO1 channels (Figure 3). […] Only the 2‐benzoic acid analogue (KC157) lacks agonist or antagonist properties.

mPIEZO1 [4] = molecular target: T2, mPIEZO1; assay: Pre-treatment with analogue before Yoda1 stimulus, Ca2+ assay in mPIEZO1-TREx cells; type: cell-based; settings: mPIEZO1-TREx, 10 μM compound 30 min pretreatment before 0.5 μM Yoda1

| Peak ΔCa2+i (ΔF340/380), median fold difference compared to Yoda1 (hPIEZO1 [1]) [fold] | Peak ΔCa2+i (ΔF340/380), median fold difference compared to Yoda1 (mPIEZO1 [2]) [fold] | Ca2+ response (agonist effect) (mPIEZO1 [2]) | 2 μM Yoda1-evoked peak ΔCa2+i (ΔF340/380), median fold difference compared to DMSO pretreatment (hPIEZO1 [3]) [fold] | Inhibition of the action of Yoda1 (hPIEZO1 [3]) | 0.5 μM Yoda1-evoked peak ΔCa2+i (ΔF340/380), median fold difference compared to DMSO pretreatment (mPIEZO1 [4]) [fold] | SMILES | Effect on responses to phenylephrine (mouse portal vein; 10 μM Dooku1) | Effect of pre-incubation on relaxations evoked by PIEZO1 agonists (mouse portal vein; 10 μM Dooku1 pre-incubation, 30 min) |
| --- | --- | --- | --- | --- | --- | --- | --- | --- |
|  |  |  |  |  |  | Clc1cccc(Cl)c1CSc1nnc(-c2ccc[nH]2)o1 [Dooku1, reference compound] | consistently inhibited responses to phenylephrine | reduces relaxations evoked by KC159 and KC289 |
| −11.7 | −2.0 | agonist effects | −3.8 | inhibit the Yoda1 response | −4.9 | O=C(O)c1cccc(-c2nnc(SCc3c(Cl)cccc3Cl)s2)c1 [KC158] |  |  |
| −23.6 | −3.8 | agonist effects |  |  | −6.5 | NC(=O)c1ccc(-c2nnc(SCc3c(Cl)cccc3Cl)s2)cc1 [KC161] |  |  |
| −3.7 | −3.7 | agonist effects | −2.5 | inhibit the Yoda1 response | −8.2 | NC(=O)c1cccc(-c2nnc(SCc3c(Cl)cccc3Cl)s2)c1 [KC162] |  |  |
